# According to patent publication US8552002B2 (Novartis AG, priority 2004, dated 2013):
# Tests used:
# Type in all cases: biochemical
# Tek = molecular target: T1, Tek (Homo sapiens, UniProt Q02763); assay: Recombinant GST-Tek (Tie-2) tyrosine kinase assay (33P into poly(Glu,Tyr)); conditions: Examples 1 to 169
# T1 construct: amino acids 773-1124 of the cytoplasmic kinase domain of human Tek, N-terminally fused to GST; made in house; host or cells: Sf9 insect cells (baculovirus)
# Source text: (Tie-2/Tek): The baculovirus donor vector pFbacG01 was used to generate a recombinant baculovirus that expressed the amino acid region amino acids 773-1124 of the cytoplasmic kinase domain of human Tek, N-terminally fused to GST (Provided by Dr. Marmé, Institute of Molecular Medicine, Freiburg, Germany based on a Research Collaboration). Tek was recloned into the pFbacG01 transfer vector by EcoRI excision and ligation into EcoRI digested pFbacG01 (FBG-Tie2/Tek).
# Production of virus: Transfer vectors containing the kinase domains were transfected into the DH10Bac cell line (GIBCO) and plated on selective agar plates. Colonies without insertion of the fusion sequence into the viral genome (carried by the bacteria) are blue. Single white colonies were picked and viral DNA (bacmid) isolated from the bacteria by standard plasmid purification procedures. Sf9 cells or Sf21 cells were then transfected in 25 cm^2 flasks with the viral DNA using Cellfectin reagent.
# Determination of small scale protein expression in Sf9 cells: Virus containing media was collected from the transfected cell culture and used for infection to increase its titer. Virus containing media obtained after two rounds of infection was used for large-scale protein expression. For large-scale protein expression 100 cm^2 round tissue culture plates were seeded with 5×10^7 cells/plate and infected with 1 mL of virus-containing media (approx. 5 MOIs). After 3 days the cells were scraped off the plate and centrifuged at 500 rpm for 5 min. Cell pellets from 10-20, 100 cm^2 plates, were resuspended in 50 mL of ice-cold lysis buffer (25 mMTris-HCl, pH7.5, 2 mMEDTA, 1% NP-40, 1 mM DTT, 1 mMP MSF). The cells were stirred on ice for 15 min and then centrifuged at 5000 rpms for 20 min.
# Purification of GST-tagged proteins: The centrifuged cell lysate was loaded onto a 2 mL glutathione-sepharose column and washed three times with 10 mL of 25 mM Tris-HCl, pH 7.5, 2 mM EDTA, 1 mM DTT, 200 mM NaCl. The GST-tagged proteins were then eluted by 10 applications (1 mL each) of 25 mM Tris-HCl, pH 7.5, 10 mM reduced-glutathione, 100 mM NaCl, 1 mM DTT, 10% Glycerol and stored at −70° C.
# Measure of enzyme activity: Tyrosine protein kinase assays with either purified GST-Ret, GST-Tek or GST-FGFR-3-K650E were carried out in a final volume of 30 μL with final concentrations of the following components: Ret included 15 ng of GST-Ret, 20 mM Tris-HCl, pH 7.5, 1 mM MnCl2, 10 mM MgCl2, 1 mM DTT, 3 μg/mL poly(Glu,Tyr) 4:1, 1% DMSO and 2.0 μM ATP (γ-[^33P]-ATP 0.1 μCi). Tek included 150 ng of GST-Tek, 20 mM Tris-HCl, pH 7.5, 3 mM MnCl2, 3 mM MgCl2, 1 mM DTT, 0.01 mM Na3VO4, 250 μg/mL PEG 20'000, 10 μg/mL poly(Glu,Tyr) 4:1, 1% DMSO and 4.0 μM ATP (γ-[^33P]-ATP 0.1 μCi). FGFR-3-K650E included 10 ng of GST-FGFR-3-K650E, 20 mM Tris-HCl, pH 7.5, 3 mM MnCl2, 3 mM MgCl2, 1 mM DTT, […], 10 μg/mL poly(Glu,Tyr) 4:1, 1% DMSO and 4.0 μM ATP (γ-[^33P]-ATP 0.1 μCi).The activity was assayed in the presence or absence of inhibitors, by measuring the incorporation of ^33P from [γ^33P] ATP into poly(Glu,Tyr) 4:1. The assay was carried out in 96-well plates at ambient temperature for 30 min under conditions described below and terminated by the addition of 50 μL of 125 mM EDTA. Subsequently, 60 μL of the reaction mixture were transferred onto Immobilon-PVDF membrane (Millipore) previously soaked for 5 min with methanol, rinsed with water, then soaked for 5 min with 0.5% H3PO4 and mounted on vacuum manifold with disconnected vacuum source. After spotting all samples, vacuum was connected and each well rinsed with 200 μL 0.5% H3PO4. Membranes were removed and washed 4× on a shaker with 1.0% H3PO4, once with ethanol. Membranes were counted after drying at ambient temperature, mounting in Packard TopCount 96-well frame, and addition of 10 μL/well of Microscint™ (Packard). […]
# KDR = molecular target: T2, KDR (Homo sapiens, UniProt P35968); assay: Inhibitory activity against KDR (VEGF-R2), in vitro data of Examples 170 and 207; conditions: 10 μM; Examples 1 to 169; read-out: KDR inhibition at 10 μM
# T2 construct: expressed in transfected cells; host or cells: CHO cells
# T2 sequence (P35968 20-1356): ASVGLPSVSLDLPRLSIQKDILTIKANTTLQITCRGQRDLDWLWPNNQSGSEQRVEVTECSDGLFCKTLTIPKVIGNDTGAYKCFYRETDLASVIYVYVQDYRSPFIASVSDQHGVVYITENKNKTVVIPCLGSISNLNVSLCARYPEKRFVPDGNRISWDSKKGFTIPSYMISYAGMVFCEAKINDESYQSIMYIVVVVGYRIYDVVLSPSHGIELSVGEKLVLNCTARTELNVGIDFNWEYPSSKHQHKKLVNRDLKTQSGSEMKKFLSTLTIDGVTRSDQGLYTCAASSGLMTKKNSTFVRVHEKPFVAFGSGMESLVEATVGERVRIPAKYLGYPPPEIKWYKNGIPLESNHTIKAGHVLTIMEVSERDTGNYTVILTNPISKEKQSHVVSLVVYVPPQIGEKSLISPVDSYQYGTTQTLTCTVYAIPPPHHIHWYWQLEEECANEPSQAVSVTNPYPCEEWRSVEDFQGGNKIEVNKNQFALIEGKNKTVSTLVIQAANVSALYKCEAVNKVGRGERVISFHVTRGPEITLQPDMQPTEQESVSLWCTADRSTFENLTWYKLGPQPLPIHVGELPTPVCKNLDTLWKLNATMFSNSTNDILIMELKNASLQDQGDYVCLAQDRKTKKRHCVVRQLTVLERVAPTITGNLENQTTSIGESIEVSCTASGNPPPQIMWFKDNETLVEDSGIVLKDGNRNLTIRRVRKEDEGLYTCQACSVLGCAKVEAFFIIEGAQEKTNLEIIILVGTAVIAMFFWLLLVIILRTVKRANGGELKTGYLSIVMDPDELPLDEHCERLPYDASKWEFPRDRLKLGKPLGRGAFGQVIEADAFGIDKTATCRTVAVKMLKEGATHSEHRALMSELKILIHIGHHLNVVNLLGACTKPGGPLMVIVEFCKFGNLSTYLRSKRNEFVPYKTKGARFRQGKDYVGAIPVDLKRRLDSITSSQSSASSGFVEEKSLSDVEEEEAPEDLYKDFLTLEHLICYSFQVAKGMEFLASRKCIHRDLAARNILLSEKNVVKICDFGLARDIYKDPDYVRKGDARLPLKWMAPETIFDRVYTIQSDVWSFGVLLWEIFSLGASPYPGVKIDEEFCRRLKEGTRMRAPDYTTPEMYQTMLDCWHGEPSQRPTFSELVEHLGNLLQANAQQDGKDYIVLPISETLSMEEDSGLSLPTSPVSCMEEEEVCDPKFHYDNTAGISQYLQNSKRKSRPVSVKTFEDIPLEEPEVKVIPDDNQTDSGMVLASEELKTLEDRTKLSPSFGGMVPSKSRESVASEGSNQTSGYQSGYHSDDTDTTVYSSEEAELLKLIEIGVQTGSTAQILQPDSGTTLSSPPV
# Method: (Controls comprise medium without test compounds). After two hours of incubation at 37° C., recombinant VEGF is added; the final VEGF concentration is 20 ng/ml. After a further five minutes incubation at 37° C., the cells are washed twice with ice-cold PBS (phosphate-buffered saline) and immediately lysed in 100 μl lysis buffer per well. The lysates are then centrifuged to remove the cell nuclei, and the protein concentrations of the supernatants are determined using a commercial protein assay (BIORAD). The lysates can then either be immediately used or, if necessary, stored at −20° C. […] The plates are then washed and the remaining free protein-binding sites are saturated with 3% TopBlock® (Juro, Cat. # TB232010) in phosphate buffered saline with Tween 20® (polyoxyethylen(20)sorbitane monolaurate, ICI/Uniquema) (PBST). The cell lysates (20 μg protein per well) are then incubated in these plates overnight at 4° C. together with an antiphosphotyrosine antibody coupled with alkaline phosphatase (PY20:AP from Zymed). […] The luminescence is measured in a Packard Top Count Microplate Scintillation Counter.
# FGFR3 (K650E) = molecular target: T3, FGFR3 (K650E) (Homo sapiens, UniProt P22607, K650E); assay: Recombinant GST-FGFR-3-K650E tyrosine kinase assay (33P into poly(Glu,Tyr)); conditions: 10 μM; Examples 1 to 169; read-out: FGFR3 (K650E) inhibition at 10 μM
# T3 construct: amino acids 411-806 of the cytoplasmic domain of human FGFR-3, N-terminally fused to GST; made in house; host or cells: Sf9 insect cells (baculovirus)
# T3 sequence (P22607 411-806 K650E): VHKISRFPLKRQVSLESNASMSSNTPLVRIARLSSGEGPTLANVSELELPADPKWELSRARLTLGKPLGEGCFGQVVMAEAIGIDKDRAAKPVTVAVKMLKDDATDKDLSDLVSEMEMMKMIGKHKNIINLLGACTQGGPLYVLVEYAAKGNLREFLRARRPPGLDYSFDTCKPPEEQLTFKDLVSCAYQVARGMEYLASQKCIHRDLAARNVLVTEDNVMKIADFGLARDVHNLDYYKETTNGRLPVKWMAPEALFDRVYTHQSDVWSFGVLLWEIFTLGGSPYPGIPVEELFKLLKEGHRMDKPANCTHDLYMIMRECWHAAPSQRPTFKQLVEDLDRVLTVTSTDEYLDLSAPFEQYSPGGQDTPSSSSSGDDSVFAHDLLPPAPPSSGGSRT
# T1 sequence (Q02763 773-1124): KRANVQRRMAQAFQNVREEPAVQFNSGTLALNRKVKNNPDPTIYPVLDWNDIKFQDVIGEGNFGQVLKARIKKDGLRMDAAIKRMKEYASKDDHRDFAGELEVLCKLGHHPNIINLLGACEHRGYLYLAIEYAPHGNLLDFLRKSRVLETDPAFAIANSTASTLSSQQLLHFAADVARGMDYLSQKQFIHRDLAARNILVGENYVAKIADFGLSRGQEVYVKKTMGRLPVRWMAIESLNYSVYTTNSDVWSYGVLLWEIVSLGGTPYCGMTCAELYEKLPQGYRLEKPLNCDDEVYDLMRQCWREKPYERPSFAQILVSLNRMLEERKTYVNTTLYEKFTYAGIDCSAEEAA
Compound,inhibition at 10 µM (Tek) [%],inhibition at 10 µM (KDR) [%],inhibition at 10 µM (FGFR3 (K650E)) [%]
"COc1cc(NC(=O)Nc2cc(Nc3cccc(Cl)c3)ncn2)cc(OC)c1 [Example 139, 1-[6-(3-Chloro-phenylamino)-pyrimidin-4-yl]-3-(3,5-dimethoxy-phenyl)-urea]",12 to 100,67 to 100,27 to 100
"COc1cc(NC(=O)N(C)c2cc(Nc3ccc(N4CCN(C)CC4)cc3)ncn2)c(Cl)c(OC)c1 [Example 50, 3-(2-Chloro-3,5-dimethoxy-phenyl)-1-methyl-1-{6-[4-(4-methyl-piperazin-1-yl)-phenylamino]-pyrimidin-4-yl}-urea]",12 to 100,67 to 100,
"COc1cc(OC)c(Cl)c(NC(=O)N(C)c2cc(Nc3ccc(CCCN(C)C)cc3)ncn2)c1Cl [Example 147, 3-(2,6-Dichloro-3,5-dimethoxy-phenyl)-1-{6-[4-(3-dimethylamino-propyl)-phenylamino]-pyrimidin-4-yl}-1-methyl-urea]",12 to 100,67 to 100,
"COc1cc(NC(=O)N(C)c2cc(Nc3ccc(N4CCN(C)CC4)cc3)ncn2)cc(OC)c1 [Example 47, 3-(3,5-Dimethoxy-phenyl)-1-methyl-1-{6-[4-(4-methyl-piperazin-1-yl)-phenylamino]-pyrimidin-4-yl}-urea]",12 to 100,67 to 100,
"COc1ccc(Cl)c(NC(=O)Nc2cc(Nc3ccc(N4CCN(C)CC4)cc3)ncn2)c1 [Example 28, 1-(2-Chloro-5-methoxy-phenyl)-3-{6-[4-(4-methyl-piperazin-1-yl)-phenyl-amino]-pyrimidin-4-yl}-urea]",12 to 100,67 to 100,
"COc1cc(NC(=O)Nc2cc(Nc3ccc(N4CCN(C)CC4)cc3)ncn2)c(Cl)c(OC)c1 [Example 40, 1-(2-Chloro-3,5-dimethoxy-phenyl)-3-{6-[4-(4-methyl-Piperazin-1-yl)-phenyl-amino]-pyrimidin-4-yl}-urea]",12 to 100,67 to 100,
"COc1ccc(Cl)c(NC(=O)Nc2cc(Nc3ccc(N4CCN(C)CC4)cc3)ncn2)c1Cl [Example 36, 1-(2,6-Dichloro-3-methoxy-phenyl)-3-{6-[4-(4-methyl-piperazin-1-yl)-phenyl-amino]-pyrimidin-4-yl}-urea]",12 to 100,67 to 100,

# Other lines, results leading:
inhibition at 10 µM (Tek) [%],inhibition at 10 µM (KDR) [%],inhibition at 10 µM (FGFR3 (K650E)) [%],Compound
12 to 100,67 to 100,27 to 100,"O=C(Nc1cc(Nc2cccc(Cl)c2)ncn1)Nc1c(Cl)cccc1Cl [Example 137, 1-[6-(3-Chloro-phenylamino)-pyrimidin-4-yl]-3-(2,6-dichloro-Phenyl)-urea]"
12 to 100,67 to 100,,"COc1cc(OC)c(Cl)c(NC(=O)N(C)c2cc(Nc3cccc(CN(C)C)c3)ncn2)c1Cl [Example 144, 3-(2,6-Dichloro-3,5-dimethoxy-phenyl)-1-[6-(3-dimethylaminomethyl-phenylamino)-pyrimidin-4-yl]-1-methyl-urea]"
12 to 100,67 to 100,,"CCN(C(=O)Nc1cc(OC)cc(OC)c1Cl)c1cc(Nc2ccc(N3CCN(C)CC3)cc2)ncn1 [Example 55, 3-(2-Chloro-3,5-dimethoxy-phenyl)-1-ethyl-1-{6-[4-(4-methyl-piperazin-1-yl)-phenylamino]-pyrimidin-4-yl}-urea]"
12 to 100,67 to 100,,"COc1cc(OC)c(Cl)c(NC(=O)N(C)c2cc(Nc3ccc(OCCN4CCCC4)cc3)ncn2)c1Cl [Example 148, 3-(2,6-Dichloro-3,5-dimethoxy-phenyl)-1-methyl-1-{6-[4-(2-pyrrolidin-1-yl-ethoxy)-phenylamino]-pyrimidin-4-yl}-urea]"
12 to 100,67 to 100,,"COc1cc(OC)c(Cl)c(NC(=O)N(C)c2cc(Nc3cccc(N4CCN(C)CC4)c3)ncn2)c1Cl [Example 3, 3-(2,6-Dichloro-3,5-dimethoxy-phenyl)-1-methyl-1-{6-[3-(4-methyl-piperazin-1-yl)-phenylamino]-pyrimidin-4-yl}-urea]"
